The values that follow come from paper PMC10290961 (European Journal of Medicinal Chemistry, 2023).

The structures appear in SMILES notation.

The conditions of data set [1]: for decomposition in SGF: 37 °C, within 120 min.
The nature of data set [2]: Transmission electron microscopy. Type of data set: physicochemical. Conditions: for micelle formation (TEM): 50.0 μM, pH 7.4 phosphate buffer.
Data set [3] in a line: Stability in GSH environment. Format: physicochemical. Conditions: 20 mM GSH, pH 7.4 phosphate buffer, 37 °C.
In another data set the test system is AdV5. Format: cell-based, adenovirus (AdV) 5. Conditions: A549 cells.

For `CCCCCCCCCCCCCCCCSSCCCCOP(=O)(O)CO[C@H](CO)Cn1ccc(N)nc1=O.N` [Compound 1n, 4-(hexadecyldisulfanyl)butyl hydrogen ((((S)-1-(4-amino-2-oxopyrimidin-1(2H)-yl)-3-hydroxypropan-2-yl)oxy)methyl)phosphonate], in data set [1], the “decomposition in SGF” value is recorded as “not decomposed”. Also, the “micelle formation (TEM)” value in data set [2] was “could form micelles”.

As to `CCCCCCCCCCCCCCSSCCOP(=O)(O)CO[C@H](CO)Cn1ccc(N)nc1=O.N` [Compound 1c, 2-(tetradecyldisulfanyl)ethyl hydrogen ((((S)-1-(4-amino-2-oxopyrimidin-1(2H)-yl)-3-hydroxypropan-2-yl)oxy)methyl)phosphonate], the “remaining in SGF” value in data set [1] (SGF pH 2.0, 37 °C, after 120 min) is “approximately 77%”. The “micelle formation (TEM)” value in data set [2] is listed as “could form micelles”. Moreover, the “remaining after incubation with GSH” value in data set [3] (after 360 min) was “approximately 13%”. Also, in the data set on VACV, the “fold TI relative to BCV” value came out at 2.8 fold.

With `CCCCCCCCCCCCCCSSCCCOP(=O)(O)CO[C@H](CO)Cn1ccc(N)nc1=O.N` [Compound 1h, 3-(tetradecyldisulfanyl)propyl hydrogen ((((S)-1-(4-amino-2-oxopyrimidin-1(2H)-yl)-3-hydroxypropan-2-yl)oxy)methyl)phosphonate], the “stability in GSH environment relative to 1c” value in data set [3] was “significant enhancement in stability”.

With `CCCCCCCCCCCCSSCCCCCCOP(=O)(O)CO[C@H](CO)Cn1ccc(N)nc1=O.N` [Compound 1q, 6-(dodecyldisulfanyl)hexyl hydrogen ((((S)-1-(4-amino-2-oxopyrimidin-1(2H)-yl)-3-hydroxypropan-2-yl)oxy)methyl)phosphonate], the “decomposition in SGF” value in data set [1] is on record as “not decomposed”. Moreover, the “fold increase in TI value compared to BCV (anti-AdV5)” value in the data set on AdV5 came to 8.9 fold.

Regarding `CCCCCCCCCCCCCCSSCCCCOP(=O)(O)CO[C@H](CO)Cn1ccc(N)nc1=O.N` [Compound 1m, 4-(tetradecyldisulfanyl)butyl hydrogen ((((S)-1-(4-amino-2-oxopyrimidin-1(2H)-yl)-3-hydroxypropan-2-yl)oxy)methyl)phosphonate], the “stability in GSH environment relative to 1c” value in data set [3] is recorded as “significant enhancement in stability”.

Take `CCCCCCCCCCCCCCCCSSCCOP(=O)(O)CO[C@H](CO)Cn1ccc(N)nc1=O.N` [Compound 1d, 2-(hexadecyldisulfanyl)ethyl hydrogen ((((S)-1-(4-amino-2-oxopyrimidin-1(2H)-yl)-3-hydroxylpropan-2-yl)oxy)methyl)phosphonate]: the “micelle formation (TEM)” value in data set [2] is on record as “could form micelles”. Besides, in data set [3], the “stability in GSH environment relative to 1c” value was “significant enhancement in stability”.

On to `CCCCCCCCCCCCCCSSCCCCCCOP(=O)(O)CO[C@H](CO)Cn1ccc(N)nc1=O.N` [Compound 1r, 6-(tetradecyldisulfanyl)hexyl hydrogen ((((S)-1-(4-amino-2-oxopyrimidin-1(2H)-yl)-3-hydroxypropan-2-yl)oxy)methyl)phosphonate], for which the “micelle formation (TEM)” value in data set [2] is reported as “could form micelles”. For the same compound, the “stability in GSH environment relative to 1c” value in data set [3] is given as “significant enhancement in stability”.

With `CCCCCCCCSSCCCCCCOP(=O)(O)CO[C@H](CO)Cn1ccc(N)nc1=O.N` [Compound 1o, 6-(octyldisulfanyl)hexyl hydrogen ((((S)-1-(4-amino-2-oxopyrimidin-1(2H)-yl)-3-hydroxypropan-2-yl)oxy)methyl)phosphonate], the “TI (therapeutic index, CC50/IC50)” value in the data set with VACV was >4.

In the case of `CCCCCCCCCCCCCCCCCCSSCCOP(=O)(O)CO[C@H](CO)Cn1ccc(N)nc1=O.N` [Compound 1e, 2-(octadecyldisulfanyl)ethyl hydrogen ((((S)-1-(4-amino-2-oxopyrimidin-1(2H)-yl)-3-hydroxypropan-2-yl)oxy)methyl)phosphonate], in data set [2], the “micelle formation (TEM)” value was “could form micelles”. Further, the “stability of micelles in GSH environment (TEM)” value in data set [2] (incubated for 4 h in GSH environment) is reported as “could keep stable”. Moreover, the “stability in GSH environment relative to 1c” value in data set [3] is reported as “significant enhancement in stability”.
